From US20240335381A1, “Transdermal Microemulsion Delivery Systems for Alcohol-Soluble Species Including Nonderivatized Hormones” (Quicksilver Scientific, Inc., priority 2021, published 2024)
Values after ≈ are worked out from the molar mass of the structure shown. Where two headings read alike, the source gives them in different places.

Legend:
[1] = Solubility in ethanol and in MCT oil; assay type: physicochemical
From the text: An alcohol-soluble species is a species that is insoluble in water and has a greater solubility in ethanol than in medium chain triglyceride (MCT) oils. […] Alcohol-soluble species are preferably pharmacologically active, more preferably are a drug or a supplement, and neither include nor are water. Thus, liquids and solids may exist that technically are soluble in alcohol, but because they also are soluble in water or more or equivalently soluble in MCT oils than in ethanol are not “alcohol-soluble species”.
Solubilized means that the alcohol-soluble species to be delivered is in the solution of the droplet. […] Thus, if either average particle diameters greater than 200 nm or precipitated crystals visible to the naked eye form, the alcohol-soluble species is not solubilized in the solution of the droplet. If an alcohol-soluble species is not solubilized in the solution, it is insoluble in the solution. In many respects, solubility may be thought of as a concentration dependent continuum. For example, the following descriptive terms may be used to express solubility of a solute in a solvent (grams solid/mL of solvent) at 25 degrees Celsius: […]

[2] = cited from earlier work

Structure (SMILES) | solubility level in MCT oil ([1]; MCT oil) | solubility level in ethanol ([1]; ethanol) | solubility ([1]; ethanol, organic solvent or mixture, read-out: solubility in ethanol) | solubility ([1]; medium chain triglyceride (MCT) oil, oil or lipid, MCT oil, read-out: solubility in MCT oil) | time within which the remainder is metabolized from the blood ([2]; after introduction) | share metabolized from the blood ([2]; within the first hour of introduction)
C[C@]12CC[C@H](O)CC1=CC[C@@H]1[C@@H]2CC[C@]2(C)C(=O)CC[C@@H]12 [DHEA, dehydroepiandrosterone (3-beta-hydroxyandrosteron-5-en-17-one)] | sparingly soluble | freely soluble | ~150 mg/mL (≈ 520 mM) | ~10 mg/mL (≈ 34.7 mM) |  | 
C[C@]12CC[C@H]3[C@@H](CCC4=CC(=O)CC[C@@]43C)[C@@H]1CC[C@@H]2O [testosterone] |  |  |  |  | three | about 90%
